Test [1] concerns primary human fibroblasts derived from IPF patients (LL29 cells). In words: Inhibition of the fibrotic process: αSMA staining in TGF-β1 treated fibroblasts. Type of test: cell-based. The note with it: Fibroblast; for pEC50: 96 h, LL29 cells, TGF-β1 20 ng/mL, 4 days, % αSMA positive cells; for inhibition at 10 µM: given where EC50 >10 μM, LL29, αSMA, read-out: percent inhibition at 10 μM. The procedure, abridged:
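EC50 from triplicate-well dose-response fits of % αSMA-positive cells, normalized to TGF-β1-stimulated DMSO controls, with SYTOX-positive dead cells excluded. LL29 IPF fibroblasts received compound at 10 μM–1.87 nM (0.1% DMSO) plus 20 ng/mL TGF-β1 for 4 days in 1% FBS medium; above 10 μM, % inhibition at 10 μM reported.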

The test system of test [2] is Wnt activity (Sp5-Luc reporter, SW480 colon carcinoma cells). In words: Wnt activity screening assay: Sp5-Luc reporter gene assay in SW480 cells. Type of test: cell-based. The note with it: Homo sapiens; for pEC50: SW480 cells, overnight incubation; for inhibition at 10 µM: given where EC50 >10 μM, SW480, read-out: percent inhibition at 10 μM. In a few lines: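 Luminescence (BrightGlo) read after overnight 37 °C exposure of Sp5-Luc SW480 reporter cells, 4,000/well in 1% FBS, to compound dosed 1:3 over 10 points from 10 μM with 0.1% DMSO. Values normalized to DMSO-only cells, fitted with variable-slope four-parameter model; where EC50 exceeds 10 μM, % inhibition at 10 μM reported.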
A general note: A reporter such as luciferase makes a cellular process visible.

The term pEC50 denotes the negative decadic logarithm of the EC50, by convention in mol/L. Higher therefore signals a low EC50. Broadly, the inhibition is how much of the control response was suppressed.

pEC50: −log10 of the molar value.

For `CN1CCN(c2ccnc3[nH]c(-c4n[nH]c5ccc(-c6cncc(NC(=O)c7ccccc7)c6)nc45)cc23)CC1` [Compound 235, N-(5-(3-(4-(4-Methylpiperazin-1-yl)-1H-pyrrolo[2,3-b]pyridin-2-yl)-1H-pyrazolo[4,3-b]pyridin-5-yl)pyridin-3-yl)benzamide], the pEC50 was 5.49 in test [1] and 5.22 in test [2].
On to `CN1CCN(c2ccnc3[nH]c(-c4n[nH]c5ccc(-c6cncc(NC(=O)CC(C)(C)C)c6)nc45)cc23)CC1` [Compound 240, 3,3-Dimethyl-N-(5-(3-(4-(4-methylpiperazin-1-yl)-1H-pyrrolo[2,3-b]pyridin-2-yl)-1H-pyrazolo[4,3-b]pyridin-5-yl)pyridin-3-yl)butanamide], for which the results for the pEC50 in test [1] and in test [2] were 6.17 and 5.41, respectively.
In test [1], `c1cncc(-c2ccc3[nH]nc(-c4cc5cccnc5[nH]4)c3n2)c1` [Compound 256, 5-(Pyridin-3-yl)-3-(1H-pyrrolo[2,3-b]pyridin-2-yl)-1H-pyrazolo[4,3-b]pyridine] gave a pEC50 of 6.51. Further, in test [2], the negative logarithm of the EC50 (pEC50) is under 5.00 and the inhibition at 10 µM is 47%.
Turning to `CCNCc1cncc(-c2ccc3[nH]nc(-c4cc5cccnc5[nH]4)c3n2)c1` [Compound 258, N-((5-(3-(1H-Pyrrolo[2,3-b]pyridin-2-yl)-1H-pyrazolo[4,3-b]pyridin-5-yl)pyridin-3-yl)methyl)ethanamine], the pEC50 is 5.80 in test [1] and 5.42 in test [2].
For `CN(C)Cc1cncc(-c2ccc3[nH]nc(-c4cc5cccnc5[nH]4)c3n2)c1` [Compound 265, 1-(5-(3-(1H-Pyrrolo[2,3-b]pyridin-2-yl)-1H-pyrazolo[4,3-b]pyridin-5-yl)pyridin-3-yl)-N,N-dimethylmethanamine], the pEC50 in test [1] is 5.49; in test [2], under 5.00. Further, the inhibition at 10 µM in test [2] came to 20.6%.
Turning to `O=C(Nc1cncc(-c2ccc3[nH]nc(-c4cc5cccnc5[nH]4)c3n2)c1)C1CCCCC1` [Compound 275, N-(5-(3-(1H-Pyrrolo[2,3-b]pyridin-2-yl)-1H-pyrazolo[4,3-b]pyridin-5-yl)pyridin-3-yl)cyclohexanecarboxamide], the negative-log EC50 (pEC50) in test [1] and in test [2] was under 5.00 throughout. Besides, the inhibition at 10 µM in test [1] stood at 0%; in test [2], 14.9%.
For the compound `FC1(F)CCN(Cc2cncc(-c3ccc4[nH]nc(-c5cc6cccnc6[nH]5)c4n3)c2)C1` [Compound 278, 5-(5-((3,3-Difluoropyrrolidin-1-yl)methyl)pyridin-3-yl)-3-(1H-pyrrolo[2,3-b]pyridin-2-yl)-1H-pyrazolo[4,3-b]pyridine], the values for the pEC50 in test [1] and in test [2] were 7.07 and 6.98, respectively.
As for `c1cnc2[nH]c(-c3n[nH]c4ccc(-c5cncnc5)nc34)cc2c1` [Compound 279, 5-(Pyrimidin-5-yl)-3-(1H-pyrrolo[2,3-b]pyridin-2-yl)-1H-pyrazolo[4,3-b]pyridine], the pEC50 in test [1] and in test [2] was under 5.00 in each case. Moreover, the values for the inhibition at 10 µM in test [1] and in test [2] were 0% and 8%, respectively.
On to `CN(C)c1cncc(-c2ccc3[nH]nc(-c4cc5c(-c6ccoc6)ccnc5[nH]4)c3n2)c1` [Compound 315, 5-(3-(4-(Furan-3-yl)-1H-pyrrolo[2,3-b]pyridin-2-yl)-1H-pyrazolo[4,3-b]pyridin-5-yl)-N,N-dimethylpyridin-3-amine], for which the negative logarithm of the EC50 (pEC50) in test [1] was 5.26; in test [2] it was under 5.00. The inhibition at 10 µM in test [2] was 6.6%.
`O=C(Cc1ccccc1)Nc1cncc(-c2ccc3[nH]nc(-c4cc5c(-c6ccoc6)ccnc5[nH]4)c3n2)c1` [Compound 318, N-(5-(3-(4-(Furan-3-yl)-1H-pyrrolo[2,3-b]pyridin-2-yl)-1H-pyrazolo[4,3-b]pyridin-5-yl)pyridin-3-yl)-2-phenylacetamide]: the negative logarithm of the EC50 (pEC50) in test [1] and in test [2] was under 5.00 each time. For the same compound, the inhibition at 10 µM in test [1] turned out to be 25.7%; in test [2], 3.4%.
For `c1csc(-c2ccnc3[nH]c(-c4n[nH]c5ccc(-c6ccncc6)nc45)cc23)c1` [Compound 354, 5-(Pyridin-4-yl)-3-(4-(thiophen-2-yl)-1H-pyrrolo[2,3-b]pyridin-2-yl)-1H-pyrazolo[4,3-b]pyridine], the pEC50 in test [1] is 5.65; in test [2], under 5.00. The inhibition at 10 µM in test [2] was 14.6%.
For `c1csc(-c2ccnc3[nH]c(-c4n[nH]c5ccc(-c6cncnc6)nc45)cc23)c1` [Compound 363, 5-(Pyrimidin-5-yl)-3-(4-(thiophen-2-yl)-1H-pyrrolo[2,3-b]pyridin-2-yl)-1H-pyrazolo[4,3-b]pyridine], in that order: 6.26, under 5.00 and 29.8%.
The matching figures for `CN(C)CCNc1cc(F)cc(-c2ccnc3[nH]c(-c4n[nH]c5ccc(-c6ccncc6)nc45)cc23)c1` [Compound 466, N^1-(3-Fluoro-5-(2-(5-(pyridin-4-yl)-1H-pyrazolo[4,3-b]pyridin-3-yl)-1H-pyrrolo[2,3-b]pyridin-4-yl)phenyl)-N^2,N^2-dimethylethane-1,2-diamine]: 6.41, under 5.00 and 8.6%.
Take `CN(C)CCNc1cc(F)cc(-c2ccnc3[nH]c(-c4n[nH]c5ccc(-c6cncc(CNCC7CCCC7)c6)nc45)cc23)c1` [Compound 473, N^1-(3-(2-(5-(5-(((Cyclopentylmethyl)amino)methyl)pyridin-3-yl)-1H-pyrazolo[4,3-b]pyridin-3-yl)-1H-pyrrolo[2,3-b]pyridin-4-yl)-5-fluorophenyl)-N^2,N^2-dimethylethane-1,2-diamine]: the negative-log EC50 (pEC50) in test [1] is 5.70; in test [2] it was 5.33.
In test [1], `Fc1cccc(-c2ccnc3[nH]c(-c4n[nH]c5ccc(-c6cncc(OCc7ccccc7)c6)nc45)cc23)c1` [Compound 518, 5-(5-(Benzyloxy)pyridin-3-yl)-3-(4-(3-fluorophenyl)-1H-pyrrolo[2,3-b]pyridin-2-yl)-1H-pyrazolo[4,3-b]pyridine] showed a negative-log EC50 (pEC50) of 5.61. Further, in test [2], the negative logarithm of the EC50 (pEC50) is under 5.00 and the inhibition at 10 µM came out at 16.7%.
Consider `Oc1cncc(-c2ccc3[nH]nc(-c4cc5c(-c6ccc(F)cc6)ccnc5[nH]4)c3n2)c1` [Compound 533, 5-(3-(4-(4-Fluorophenyl)-1H-pyrrolo[2,3-b]pyridin-2-yl)-1H-pyrazolo[4,3-b]pyridin-5-yl)pyridin-3-ol], for which, in test [1], the pEC50 was under 5.00 and the inhibition at 10 µM turned out to be 43%. Moreover, the pEC50 in test [2] is 6.51.
`CN(C)CCOc1cncc(-c2ccc3[nH]nc(-c4cc5c(-c6cccnc6)ccnc5[nH]4)c3n2)c1` [Compound 563, N,N-Dimethyl-2-((5-(3-(4-(pyridin-3-yl)-1H-pyrrolo[2,3-b]pyridin-2-yl)-1H-pyrazolo[4,3-b]pyridin-5-yl)pyridin-3-yl)oxy)ethan-1-amine] showed a negative logarithm of the EC50 (pEC50) in test [1] of 5.52. In test [2], the negative logarithm of the EC50 (pEC50) is under 5.00 and the inhibition at 10 µM amounted to 7.2%.
For `c1cc(-c2ccnc3[nH]c(-c4n[nH]c5ccc(-c6cncc(OCCN7CCCC7)c6)nc45)cc23)ccn1` [Compound 578, 3-(4-(Pyridin-4-yl)-1H-pyrrolo[2,3-b]pyridin-2-yl)-5-(5-(2-(pyrrolidin-1-yl)ethoxy)pyridin-3-yl)-1H-pyrazolo[4,3-b]pyridine], in that order: 5.91, under 5.00 and 7.7%.
Consider `c1cc(N2CCCCC2)c2cc(-c3n[nH]c4ccc(C5CCNCC5)nc34)[nH]c2n1` [Compound 601, 3-(4-(Piperidin-1-yl)-1H-pyrrolo[2,3-b]pyridin-2-yl)-5-(piperidin-4-yl)-1H-pyrazolo[4,3-b]pyridine], for which the negative-log EC50 (pEC50) in test [1] and in test [2] was under 5.00 each time. The inhibition at 10 µM was 20.1% in test [1] and 3.5% in test [2].
The compound `CN1CCN(c2ccnc3[nH]c(-c4n[nH]c5ccc(-c6cn[nH]c6)nc45)cc23)CC1` [Compound 635, 3-(4-(4-Methylpiperazin-1-yl)-1H-pyrrolo[2,3-b]pyridin-2-yl)-5-(1H-pyrazol-4-yl)-1H-pyrazolo[4,3-b]pyridine] gave a negative logarithm of the EC50 (pEC50) in test [1] of 5.82. In test [2], the negative-log EC50 (pEC50) is under 5.00 and the inhibition at 10 µM was determined as 13.4%.
For the compound `Cn1cc(-c2ccc3[nH]nc(-c4cc5cccnc5[nH]4)c3n2)cn1` [Compound 652, 5-(1-Methyl-1H-pyrazol-4-yl)-3-(1H-pyrrolo[2,3-b]pyridin-2-yl)-1H-pyrazolo[4,3-b]pyridine], the pEC50 was 5.92 in test [1] and 5.65 in test [2].
On to `O=C(CC1CCNCC1)Nc1cncc(-c2ccc3[nH]nc(-c4cc5c(-c6ccoc6)ccnc5[nH]4)c3n2)c1` [Compound 689, N-(5-(3-(4-(Furan-3-yl)-1H-pyrrolo[2,3-b]pyridin-2-yl)-1H-pyrazolo[4,3-b]pyridin-5-yl)pyridin-3-yl)-2-(piperidin-4-yl)acetamide], for which the pEC50 was 5.66 in test [1] and under 5.00 in test [2]. Moreover, the inhibition at 10 µM in test [2] was 10.9%.
Take `c1csc(-c2ccnc3[nH]c(-c4n[nH]c5ccc(-c6cncc(OC7CCCCC7)c6)nc45)cc23)c1` [Compound 703, 5-(5-(Cyclohexyloxy)pyridin-3-yl)-3-(4-(thiophen-2-yl)-1H-pyrrolo[2,3-b]pyridin-2-yl)-1H-pyrazolo[4,3-b]pyridine]: the pEC50 in test [1] is 5.79; in test [2], 5.44.
